According to the NIST ThermoML archive (doi:10.1016/j.jct.2016.03.026):
± gives the expanded uncertainty stated by the source.

Test: xn = mol fraction of the nth substance listed
Settings: 283.15 K, Fluid (supercritical or subcritical phases), Vibrating tube method, x1 = 0.97

O=C=O [carbon dioxide] + CO
Settings | mass density [kg/m3]
10450 kPa | 927.45 ± 0.8
10475 kPa | 927.61 ± 0.8
10500 kPa | 927.78 ± 0.8
10525 kPa | 927.92 ± 0.8
10550 kPa | 928.1 ± 0.8
10575 kPa | 928.27 ± 0.8
10600 kPa | 928.46 ± 0.8
10625 kPa | 928.66 ± 0.8
10650 kPa | 928.76 ± 0.8
10675 kPa | 928.84 ± 0.8
10700 kPa | 929 ± 0.8
10725 kPa | 929.16 ± 0.8
10750 kPa | 929.25 ± 0.8
10775 kPa | 929.45 ± 0.8
10800 kPa | 929.62 ± 0.8
10825 kPa | 929.74 ± 0.8
10850 kPa | 929.88 ± 0.8
10875 kPa | 930.06 ± 0.8
10900 kPa | 930.27 ± 0.8
10925 kPa | 930.41 ± 0.8
10950 kPa | 930.57 ± 0.8
10975 kPa | 930.73 ± 0.8
11000 kPa | 930.89 ± 0.8
11025 kPa | 931.03 ± 0.8
11050 kPa | 931.19 ± 0.8
11075 kPa | 931.33 ± 0.8
11100 kPa | 931.58 ± 0.8
11125 kPa | 931.69 ± 0.8
11150 kPa | 931.86 ± 0.8
11175 kPa | 932.02 ± 0.8
11200 kPa | 932.18 ± 0.8
11225 kPa | 932.34 ± 0.8
11250 kPa | 932.51 ± 0.8
11275 kPa | 932.67 ± 0.8
11300 kPa | 932.9 ± 0.8
11325 kPa | 933.08 ± 0.8
11350 kPa | 933.16 ± 0.8
11375 kPa | 933.37 ± 0.8
11400 kPa | 933.49 ± 0.8
11425 kPa | 933.66 ± 0.8
11450 kPa | 933.88 ± 0.8
11475 kPa | 933.98 ± 0.8
11500 kPa | 934.17 ± 0.8
11525 kPa | 934.39 ± 0.8
11550 kPa | 934.47 ± 0.8
11575 kPa | 934.64 ± 0.8
11600 kPa | 934.8 ± 0.8
11625 kPa | 934.96 ± 0.8
11650 kPa | 935.12 ± 0.8
11675 kPa | 935.29 ± 0.8
11700 kPa | 935.45 ± 0.8
11725 kPa | 935.61 ± 0.8
11750 kPa | 935.78 ± 0.8
11775 kPa | 935.94 ± 0.8
11800 kPa | 936.1 ± 0.8
11825 kPa | 936.26 ± 0.8
11850 kPa | 936.43 ± 0.8
11875 kPa | 936.59 ± 0.8
11900 kPa | 936.74 ± 0.8
11925 kPa | 936.92 ± 0.8
11950 kPa | 937.07 ± 0.8
11975 kPa | 937.23 ± 0.8
12000 kPa | 937.33 ± 0.8
12025 kPa | 937.53 ± 0.8
12050 kPa | 937.68 ± 0.8
12075 kPa | 937.82 ± 0.8
12100 kPa | 937.98 ± 0.8
12125 kPa | 938.14 ± 0.8
12150 kPa | 938.31 ± 0.8
12175 kPa | 938.47 ± 0.8
12200 kPa | 938.63 ± 0.8
12225 kPa | 938.8 ± 0.8
12250 kPa | 938.96 ± 0.8
12275 kPa | 939.1 ± 0.8
12300 kPa | 939.21 ± 0.8
12325 kPa | 939.37 ± 0.8
12350 kPa | 939.53 ± 0.8
12375 kPa | 939.7 ± 0.8
12400 kPa | 939.86 ± 0.8
12425 kPa | 940.02 ± 0.8
12450 kPa | 940.19 ± 0.8
12475 kPa | 940.27 ± 0.8
12500 kPa | 940.45 ± 0.8
12525 kPa | 940.59 ± 0.8
12550 kPa | 940.76 ± 0.8
12575 kPa | 940.92 ± 0.8
12600 kPa | 941.08 ± 0.8
12625 kPa | 941.25 ± 0.8
12650 kPa | 941.41 ± 0.8
12675 kPa | 941.57 ± 0.8
12700 kPa | 941.74 ± 0.8
12725 kPa | 941.87 ± 0.8
12750 kPa | 942.06 ± 0.8
12775 kPa | 942.16 ± 0.8
12800 kPa | 942.34 ± 0.8
12825 kPa | 942.47 ± 0.8
12850 kPa | 942.63 ± 0.8
12875 kPa | 942.8 ± 0.8
12900 kPa | 942.96 ± 0.8
12925 kPa | 943.13 ± 0.8
12950 kPa | 943.22 ± 0.8
12975 kPa | 943.37 ± 0.8
13000 kPa | 943.53 ± 0.8
13025 kPa | 943.7 ± 0.8
13050 kPa | 943.86 ± 0.8
13075 kPa | 944.02 ± 0.8
13100 kPa | 944.17 ± 0.8
13125 kPa | 944.27 ± 0.8
13150 kPa | 944.43 ± 0.8
13175 kPa | 944.59 ± 0.8
13200 kPa | 944.76 ± 0.8
13225 kPa | 944.92 ± 0.8
13250 kPa | 945.05 ± 0.8
13275 kPa | 945.17 ± 0.8
13300 kPa | 945.33 ± 0.8
13325 kPa | 945.49 ± 0.8
13350 kPa | 945.66 ± 0.8
13375 kPa | 945.77 ± 0.8
13400 kPa | 945.9 ± 0.8
13425 kPa | 946.06 ± 0.8
13450 kPa | 946.23 ± 0.8
13475 kPa | 946.39 ± 0.8
13500 kPa | 946.47 ± 0.8
13525 kPa | 946.63 ± 0.8
13550 kPa | 946.8 ± 0.8
13575 kPa | 946.94 ± 0.8
13600 kPa | 947.04 ± 0.8
13625 kPa | 947.2 ± 0.8
13650 kPa | 947.37 ± 0.8
13675 kPa | 947.53 ± 0.8
13700 kPa | 947.69 ± 0.8
13725 kPa | 947.78 ± 0.8
13750 kPa | 947.94 ± 0.8
13775 kPa | 948.1 ± 0.8
13800 kPa | 948.24 ± 0.8
13825 kPa | 948.4 ± 0.8
13850 kPa | 948.51 ± 0.8
13875 kPa | 948.67 ± 0.8
13900 kPa | 948.84 ± 0.8
13925 kPa | 948.95 ± 0.8
13950 kPa | 949.1 ± 0.8
13975 kPa | 949.24 ± 0.8
14000 kPa | 949.41 ± 0.8
14025 kPa | 949.51 ± 0.8
14050 kPa | 949.65 ± 0.8
14075 kPa | 949.82 ± 0.8
14100 kPa | 949.98 ± 0.8
14125 kPa | 950.11 ± 0.8
14150 kPa | 950.22 ± 0.8
14175 kPa | 950.39 ± 0.8
14200 kPa | 950.55 ± 0.8
14225 kPa | 950.7 ± 0.8
14250 kPa | 950.8 ± 0.8
14275 kPa | 950.96 ± 0.8
14300 kPa | 951.12 ± 0.8
14325 kPa | 951.2 ± 0.8
14350 kPa | 951.37 ± 0.8
14375 kPa | 951.51 ± 0.8
14400 kPa | 951.61 ± 0.8
14425 kPa | 951.77 ± 0.8
14450 kPa | 951.93 ± 0.8
14475 kPa | 952.09 ± 0.8
14500 kPa | 952.19 ± 0.8
14525 kPa | 952.37 ± 0.8
14550 kPa | 952.51 ± 0.8
14575 kPa | 952.59 ± 0.8
14600 kPa | 952.75 ± 0.8
14625 kPa | 952.93 ± 0.8
14650 kPa | 953.08 ± 0.8
14675 kPa | 953.17 ± 0.8
14700 kPa | 953.32 ± 0.8
14725 kPa | 953.48 ± 0.8
14750 kPa | 953.62 ± 0.8
14775 kPa | 953.73 ± 0.8
14800 kPa | 953.88 ± 0.8
14825 kPa | 954.02 ± 0.8
14850 kPa | 954.14 ± 0.8
14875 kPa | 954.28 ± 0.8
14900 kPa | 954.41 ± 0.8
14925 kPa | 954.57 ± 0.8
14950 kPa | 954.68 ± 0.8
14975 kPa | 954.79 ± 0.8
15000 kPa | 954.95 ± 0.8
15025 kPa | 955.09 ± 0.8
15050 kPa | 955.2 ± 0.8
15075 kPa | 955.36 ± 0.8
15100 kPa | 955.44 ± 0.8
15125 kPa | 955.6 ± 0.8
15150 kPa | 955.77 ± 0.8
15175 kPa | 955.88 ± 0.8
15200 kPa | 956.01 ± 0.8
15225 kPa | 956.18 ± 0.8
15250 kPa | 956.27 ± 0.8
15275 kPa | 956.42 ± 0.8
15300 kPa | 956.56 ± 0.8
15325 kPa | 956.66 ± 0.8
15350 kPa | 956.78 ± 0.8
15375 kPa | 956.93 ± 0.8
15400 kPa | 957.07 ± 0.8
15425 kPa | 957.17 ± 0.8
15450 kPa | 957.32 ± 0.8
15475 kPa | 957.47 ± 0.8
15500 kPa | 957.56 ± 0.8
15525 kPa | 957.72 ± 0.8
15550 kPa | 957.84 ± 0.8
15575 kPa | 957.97 ± 0.8
15600 kPa | 958.13 ± 0.8
15625 kPa | 958.22 ± 0.8
15650 kPa | 958.37 ± 0.8
15675 kPa | 958.52 ± 0.8
15700 kPa | 958.62 ± 0.8
15725 kPa | 958.78 ± 0.8
15750 kPa | 958.89 ± 0.8
15775 kPa | 959.05 ± 0.8
15800 kPa | 959.19 ± 0.8
15825 kPa | 959.3 ± 0.8
15850 kPa | 959.43 ± 0.8
15875 kPa | 959.55 ± 0.8
15900 kPa | 959.71 ± 0.8
15925 kPa | 959.84 ± 0.8
15950 kPa | 959.94 ± 0.8
15975 kPa | 960.09 ± 0.8
16000 kPa | 960.25 ± 0.8
16025 kPa | 960.33 ± 0.8
16050 kPa | 960.49 ± 0.8
16075 kPa | 960.6 ± 0.8
16100 kPa | 960.74 ± 0.8
16125 kPa | 960.89 ± 0.8
16150 kPa | 960.98 ± 0.8
16175 kPa | 961.15 ± 0.8
16200 kPa | 961.23 ± 0.8
16225 kPa | 961.39 ± 0.8
16250 kPa | 961.53 ± 0.8
16275 kPa | 961.63 ± 0.8
16300 kPa | 961.74 ± 0.8
16325 kPa | 961.89 ± 0.8
16350 kPa | 962.02 ± 0.8
16375 kPa | 962.15 ± 0.8
16400 kPa | 962.28 ± 0.8
16425 kPa | 962.42 ± 0.8
16450 kPa | 962.53 ± 0.8
16475 kPa | 962.61 ± 0.8
16500 kPa | 962.78 ± 0.8
16525 kPa | 962.86 ± 0.8
